Values belong to the compound of their own block, whether it stands above or below them.
Target: T1, Bcl-2 protein (Recombinant Human Bcl-2 Protein) (Homo sapiens, UniProt P10415)
T1 construct: purchased Novus NBP2-34889
Assay: Binding evaluation of mixture library compounds to Bcl-2 using AS-MS (affinity selection mass spectrometry)
Conditions: for ASMS ratio (%) n = 1 / ASMS ratio (%) n = 2: ASMS Ratio(%)=(A−C)/B×100; for ASMS ratio (%) n = 1: replicate n = 1; for ASMS ratio (%) n = 2: replicate n = 2
Outline: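 ASMS Ratio (%) was calculated as (A−C)/B×100, where A is the protein sample after SEC, B the protein-free sample without SEC and C the protein-free sample after SEC. Each compound was at […] in a 1200-member pool with 20 μM Bcl-2, incubated 1 h at 23° C.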

[1] = AS-MS, mixture of 1200 compounds, Bcl-2
[2] = AS-MS on the mixture of 1200 library compounds

T1 sequence (P10415 whole entry): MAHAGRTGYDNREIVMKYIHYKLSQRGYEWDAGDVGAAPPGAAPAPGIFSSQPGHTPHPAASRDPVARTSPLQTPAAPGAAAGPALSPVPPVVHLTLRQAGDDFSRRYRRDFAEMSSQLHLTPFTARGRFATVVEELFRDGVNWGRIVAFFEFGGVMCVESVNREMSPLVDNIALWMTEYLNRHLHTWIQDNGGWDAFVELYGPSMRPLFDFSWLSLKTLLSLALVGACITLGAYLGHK

Compound: CCOc1cccc(-c2cc(CN3CCN(c4ccc(C(=O)NCC56CC7CC(CC(C7)C5)C6)cc4)CC3)cc(OC(C)C)c2)c1 [B1A057-01, N-(1-Adamantylmethyl)-4-[4-[[3-(3-ethoxyphenyl)-5-propan-2-yloxyphenyl]methyl]piperazin-1-yl]benzamide]
- ASMS ratio (%) n = 1 [1]: 0.0%
- ASMS ratio (%) n = 2 [1]: 0.0%

Compound: CCOc1cccc(-c2ccc(C(=O)N3CCN(c4ccc(C(=O)NS(=O)(=O)CCC(F)(F)F)nn4)CC3)cc2C)c1 [B2N003-01, 6-[4-[4-(3-Ethoxyphenyl)-3-methylbenzoyl]piperazin-1-yl]-N-(3,3,3-trifluoropropylsulfonyl)pyridazine-3-carboxamide]
- ASMS ratio (%) (n = 1): 0.0%
- ASMS ratio (%) (n = 2): 0.0%

Compound: CCOc1cncc(-c2csc(C(=O)N3CCN(c4ccc(C(=O)Nc5ccc(OC)cc5)nn4)CC3)c2)c1 [B1O002-01, 6-[4-[4-(5-Ethoxypyridin-3-yl)thiophene-2-carbonyl]piperazin-1-yl]-N-(4-methoxyphenyl)pyridazine-3-carboxamide]
- ASMS ratio (%) n = 1 [2]: 2.2%
- ASMS ratio (%) n = 2 [2]: 2.6%

Compound: CCOc1cccc(-c2csc(CN3CCN(c4ccc(C(=O)N(CC)CC)cc4)CC3)c2)c1 [B4J067-01, 4-[4-[[4-(3-Ethoxyphenyl)thiophen-2-yl]methyl]piperazin-1-yl]-N,N-diethylbenzamide]
- ASMS ratio (%) n = 1 (AS-MS, mixture library, Bcl-2): −11.0%
- ASMS ratio (%) n = 2 (AS-MS, mixture library, Bcl-2): −5.5%

Compound: CCOc1cccc(-c2cc(CN3CCN(c4ccc(C(=O)N(C)CC56CC7CC(CC(C7)C5)C6)cc4)CC3)cc(C(F)(F)F)c2)c1 [B3A061-01, N-(1-Adamantylmethyl)-4-[4-[[3-(3-ethoxyphenyl)-5-(trifluoromethyl)phenyl]methyl]piperazin-1-yl]-N-methylbenzamide]
- ASMS ratio (%) n = 2 [2]: 421.3%

Compound: CCOc1cccc(C#Cc2cc(C(=O)N3CCN(c4ccc(C(=O)NS(=O)(=O)CC56CC7CC(CC(C7)C5)C6)cc4)CC3)cc(C(F)(F)F)c2)c1 [B2A041-01, N-(1-Adamantylmethylsulfonyl)-4-[4-[3-[2-(3-ethoxyphenyl)ethynyl]-5-(trifluoromethyl)benzoyl]piperazin-1-yl]benzamide]
- ASMS ratio (%) n = 1 (AS-MS, mixture library, Bcl-2): 0.0%
- ASMS ratio (%) n = 2 (AS-MS, mixture library, Bcl-2): −3.7%

Compound: CCOc1cccc(C#Cc2cc(C(=O)N3CCN(c4ccc(C(=O)NCC56CC7CC(CC(C7)C5)C6)cc4)CC3)cc(C(F)(F)F)c2)c1 [B1A041-01, N-(1-Adamantylmethyl)-4-[4-[3-[2-(3-ethoxyphenyl)ethynyl]-5-(trifluoromethyl)benzoyl]piperazin-1-yl]benzamide]
- ASMS ratio (%) n = 1 [1]: −2.4%
- ASMS ratio (%) n = 2 [1]: −4.0%

Compound: CCOc1cccc(-c2cc(CN3CCN(c4ccc(C(=O)NCC56CC7CC(CC(C7)C5)C6)nn4)CC3)cc(OC(C)C)c2)c1 [B1A083-01, N-(1-Adamantylmethyl)-6-[4-[[3-(3-ethoxyphenyl)-5-propan-2-yloxyphenyl]methyl]piperazin-1-yl]pyridazine-3-carboxamide]
- ASMS ratio (%) n = 1 [1]: −0.3%
- ASMS ratio (%) n = 2 [1]: 0.5%

Compound: 6-[4-[4-(3-Ethoxyphenyl)thiophene-2-carbonyl]piperazin-1-yl]-N-propylpyridazine-3-carboxamide [B1M081-01]
- ASMS ratio (%) n = 1 [2]: 0.0%
- ASMS ratio (%) n = 2 [2]: 0.0%

Compound: CCOc1cncc(-c2cc(CN3CCN(c4ccc(C(=O)NS(=O)(=O)c5ccc(NCCSc6ccccc6)c([N+](=O)[O-])c5)nn4)CC3)cc(C(F)(F)F)c2)c1 [B2Q088-01, 6-[4-[[3-(5-Ethoxypyridin-3-yl)-5-(trifluoromethyl)phenyl]methyl]piperazin-1-yl]-N-[3-nitro-4-(2-phenylsulfanylethylamino)phenyl]sulfonylpyridazine-3-carboxamide]
- ASMS ratio (%) n = 1 (AS-MS, mixture library, Bcl-2): 13.8%
- ASMS ratio (%) n = 2 (AS-MS, mixture library, Bcl-2): 9.1%

Compound: CCOc1cccc(-c2cc(CN3CCN(c4ccc(C(=O)NS(=O)(=O)C(C)(C)C)nn4)CC3)cc(OC(F)(F)F)c2)c1 [B2L089-01, N-tert-Butylsulfonyl-6-[4-[[3-(3-ethoxyphenyl)-5-(trifluoromethoxy)phenyl]methyl]piperazin-1-yl]pyridazine-3-carboxamide]
- ASMS ratio (%) (n = 1): 0.0%
- ASMS ratio (%) (n = 2): 0.0%

Compound: CCOc1cncc(C#Cc2cc(C(=O)N3CCN(c4ccc(C(=O)NCC56CC7CC(CC(C7)C5)C6)cc4)CC3)cc(C(F)(F)F)c2)c1 [B1A042-01, N-(1-Adamantylmethyl)-4-[4-[3-[2-(5-ethoxypyridin-3-yl)ethynyl]-5-(trifluoromethyl)benzoyl]piperazin-1-yl]benzamide]
- ASMS ratio (%) n = 1 [1]: 12.5%
- ASMS ratio (%) n = 2 [1]: −8.5%

Compound: CCOc1cncc(C#Cc2cc(C(=O)N3CCN(c4ccc(C(=O)N(CC)CC)nn4)CC3)cc(C(F)(F)F)c2)c1 [B4J020-01, 6-[4-[3-[2-(5-Ethoxypyridin-3-yl)ethynyl]-5-(trifluoromethyl)benzoyl]piperazin-1-yl]-N,N-diethylpyridazine-3-carboxamide]
- ASMS ratio (%) n = 1 [2]: 0.0%
- ASMS ratio (%) n = 2 [2]: 0.0%

Compound: CCOc1cncc(-c2cc(C(=O)N3CCN(c4ccc(C(=O)NS(=O)(=O)c5ccc(NCCSc6ccccc6)c([N+](=O)[O-])c5)cc4)CC3)cc(C(C)(C)C)c2)c1 [B2Q038-01, 4-[4-[3-tert-Butyl-5-(5-ethoxypyridin-3-yl)benzoyl]piperazin-1-yl]-N-[3-nitro-4-(2-phenylsulfanylethylamino)phenyl]sulfonylbenzamide]
- ASMS ratio (%) n = 1 (AS-MS, mixture library, Bcl-2): 3.3%
- ASMS ratio (%) n = 2 (AS-MS, mixture library, Bcl-2): 0.4%

Compound: CCOc1cccc(-c2cc(CN3CCN(c4ccc(C(=O)NS(C)(=O)=O)cc4)CC3)cc(OC(F)(F)F)c2)c1 [B2I063-01, 4-[4-[[3-(3-Ethoxyphenyl)-5-(trifluoromethoxy)phenyl]methyl]piperazin-1-yl]-N-methylsulfonylbenzamide]
- ASMS ratio (%) (n = 1): 0.9%
- ASMS ratio (%) (n = 2): 0.0%

Other lines, results leading:

- ASMS ratio (%) n = 1 (AS-MS, mixture library, Bcl-2): 18.8%
- ASMS ratio (%) n = 2 (AS-MS, mixture library, Bcl-2): 15.4%
Compound: CCOc1cncc(-c2ccc(CN3CCN(c4ccc(C(=O)NS(=O)(=O)c5ccc(NCCSc6ccccc6)c([N+](=O)[O-])c5)nn4)CC3)cc2C)c1 [B2Q074-01]

- ASMS ratio (%) n = 1 [1]: 8.1%
- ASMS ratio (%) n = 2 [1]: 0.0%
Compound: CCOc1cncc(-c2ccc(C(=O)N3CCN(c4ccc(C(=O)NCC56CC7CC(CC(C7)C5)C6)nn4)CC3)c3ccccc23)c1 [B1A014-01, N-(1-Adamantylmethyl)-6-[4-[4-(5-ethoxypyridin-3-yl)naphthalene-1-carbonyl]piperazin-1-yl]pyridazine-3-carboxamide]

- ASMS ratio (%) (n = 1): 0.0%
- ASMS ratio (%) (n = 2): −1.8%
Compound: CCOc1cccc(-c2cc(CN3CCN(c4ccc(C(=O)NS(=O)(=O)CCC(F)(F)F)cc4)CC3)cc(OC(C)C)c2)c1 [B2N057-01, 4-[4-[[3-(3-Ethoxyphenyl)-5-propan-2-yloxyphenyl]methyl]piperazin-1-yl]-N-(3,3,3-trifluoropropylsulfonyl)benzamide]

- ASMS ratio (%) (n = 1): 0.0%
- ASMS ratio (%) (n = 2): 0.0%
Compound: CCOc1cncc(-c2ccc(CN3CCN(c4ccc(C(=O)NS(=O)(=O)CCC(F)(F)F)nn4)CC3)cc2C)c1 [B2N074-01, 6-[4-[[4-(5-Ethoxypyridin-3-yl)-3-methylphenyl]methyl]piperazin-1-yl]-N-(3,3,3-trifluoropropylsulfonyl)pyridazine-3-carboxamide]

- ASMS ratio (%) n = 1 (AS-MS, mixture library, Bcl-2): 18.6%
- ASMS ratio (%) n = 2 (AS-MS, mixture library, Bcl-2): 7.5%
Compound: CCOc1cccc(-c2cc(C(=O)N3CCN(c4ccc(C(=O)NS(=O)(=O)CC56CC7CC(CC(C7)C5)C6)nn4)CC3)cc(C(F)(F)F)c2)c1 [B2A017-01, N-(1-Adamantylmethylsulfonyl)-6-[4-[3-(3-ethoxyphenyl)-5-(trifluoromethyl)benzoyl]piperazin-1-yl]pyridazine-3-carboxamide]

- ASMS ratio (%) n = 1 [2]: 2.5%
- ASMS ratio (%) n = 2 [2]: 0.0%
Compound: CCOc1cccc(-c2cc(C(=O)N3CCN(c4ccc(C(=O)Nc5ccc(OC)cc5)nn4)CC3)cc(C(F)(F)F)c2)c1 [B1O017-01, 6-[4-[3-(3-Ethoxyphenyl)-5-(trifluoromethyl)benzoyl]piperazin-1-yl]-N-(4-methoxyphenyl)pyridazine-3-carboxamide]

- ASMS ratio (%) n = 1 [1]: 3.2%
- ASMS ratio (%) n = 2 [1]: 2.5%
Compound: CCOc1cccc(-c2ccc(CN3CCN(c4ccc(C(=O)NCC56CC7CC(CC(C7)C5)C6)cc4)CC3)cc2C)c1 [B1A047-01, N-(1-Adamantylmethyl)-4-[4-[[4-(3-ethoxyphenyl)-3-methylphenyl]methyl]piperazin-1-yl]benzamide]

- ASMS ratio (%) n = 1 [2]: 1.9%
- ASMS ratio (%) n = 2 [2]: −1.1%
Compound: CCOc1cncc(-c2csc(CN3CCN(c4ccc(C(=O)Nc5ccc(OC)cc5)cc4)CC3)c2)c1 [B1O068-01, 4-[4-[[4-(5-Ethoxypyridin-3-yl)thiophen-2-yl]methyl]piperazin-1-yl]-N-(4-methoxyphenyl)benzamide]

- ASMS ratio (%) n = 1 (AS-MS, mixture library, Bcl-2): −2.4%
- ASMS ratio (%) n = 2 (AS-MS, mixture library, Bcl-2): −4.8%
Compound: CCOc1cccc(-c2ccc(CN3CCN(c4ccc(C(=O)NS(=O)(=O)c5ccc(NCCSc6ccccc6)c([N+](=O)[O-])c5)cc4)CC3)c(CC)c2)c1 [B2Q049-01, 4-[4-[[4-(3-Ethoxyphenyl)-2-ethylphenyl]methyl]piperazin-1-yl]-N-[3-nitro-4-(2-phenylsulfanylethylamino)phenyl]sulfonylbenzamide]

- ASMS ratio (%) n = 1 [2]: 0.0%
- ASMS ratio (%) n = 2 [2]: 0.0%
Compound: CCOc1cccc(-c2cc(C(=O)N3CCN(c4ccc(C(=O)N(CC)CC)nn4)CC3)cc(C(C)(C)C)c2)c1 [B4J015-01, 6-[4-[3-tert-Butyl-5-(3-ethoxyphenyl)benzoyl]piperazin-1-yl]-N,N-diethylpyridazine-3-carboxamide]
